# Data published in patent US7488738B2, “Aminophenoxyacetic acid derivatives and pharmaceutical composition containing thereof” (Asubio Pharma Co., Ltd., priority 1998, dated 2009).
# Tested on: cells of cerebral cortex
# Assay: Cytoprotective effect against glutamate induced cell death (MTT)
# Assay type: cell-based, rats of Wister strain
# Conditions: compound 1 μM added 24 h before 1 mM glutamate, fetal rat cerebral cortex cells, control group = 100%; for viability at 1 µM: read-out: Survival Rate (%) (Compound: 1 μM)
# Experimental: Biological Test 1: Cytoprotective Effect Against Glutamate Induced Cell Death
# In accordance with the method of M. P. Mattoson [M. P. Mattoson, Brain Res. Rev., 13, 179 (1988)], brain of 18-days fetus rats of Wister strain were taken out. Then, cells of cerebral cortex (4×10^5 cells/ml) were seeded on poly-L-lysine coated 96 wells flat bottom plate (Sumitomo Bakelite Co., Ltd.) in concentration of 4×10^4 cells/each well. After 48 hours of incubation, 1 μM of test compounds were added, then after further 24 hours, 1 mM of glutamate were further added for inducing the cell injury. 12 hours after adding glutamate, MTT [3-(4,5-dimethylthiazol)-2,5-diphenyltetrazolium bromide] was added and incubated for 6 hours.
# After incubation, 200 μl of dimethy sulfoxide was added to each wells, and the amounts of reduced MTT were calorimetrically analyzed by Micro ELISA Reader using 570 nm of main-wavelength and 650 nm of sub-wavelength.
# The effect of the test compounds was determined as the survival rate of living cells (%) according to the following equation: Survival rate of living cells (%)=[(test compound group−glutamate treated group)÷(control group−glutamate treated group)]×100
# That is, the survival rate of living cells after incubation of the control group was converted to 100%, and the survival data of living cells of the tested compounds was shown in Table II.
SMILES,Survival Rate (%) (Compound: 1 μM),viability at 1 µM [%]
"Cc1cc(OC(C)(C)C(=O)NC2CCN(C/C=C/c3ccccc3)CC2)c(C)c(C)c1N [Compound 80, 2-(4-Amino-2,3,5-trimethylphenoxy)-2-methyl-N-[1-(3-phenyl-2-(E)-propenyl)-4-piperidinyl]propamide]",99,
"Cc1cc(OC(C)(C)C(=O)NC2CCN(CC3(c4ccccc4)CC3)CC2)c(C)c(C)c1N [Compound 81, 2-(4-Amino-2,3,5-trimethylphenoxy)-2-methyl-N-[1-(1-phenyl-1-cyclopropane)methyl-4-piperidinyl]propamide]",97,
"Cc1cc(OC(C)(C)C(=O)NC2CCN(CC(=O)Nc3ccccc3)CC2)c(C)c(C)c1N [Compound 82, 2-(4-Amino-2,3,5-trimethylphenoxy)-2-methyl-N-[1-(2-anilino-2-oxyethyl)-4-piperidinyl]propamide]",149,
"Cc1cc(OC(C)C(=O)NC2CCN(CC(=O)Nc3ccccc3)CC2)c(C)c(C)c1N (stereo not shown) [Compound 83, 2-(4-Amino-2,3,5-trimethylphenoxy)-N-[1-(2-anilino-2-oxyethyl)-4-piperidinyl]propamide]",65,
"Cc1cc(OC(C)C(=O)NC2CCN(C/C=C/c3ccccc3)CC2)c(C)c(C)c1N (stereo not shown) [Compound 84, 2-(4-Amino-2,3,5-trimethylphenoxy)-N-[1-(3-phenyl-2-(E)-propenyl)-4-piperidinyl]propamide]",87,
"Cc1cc(OCC(=O)NC2CCN(CC(=O)Nc3ccccc3)CC2)c(C)c(C)c1N [Compound 85, 2-(4-Amino-2,3,5-trimethylphenoxy)-N-[1-(2-anilino-2-oxyethyl)-4-piperidinyl]acetamide]",98,
"Cc1cc(OCC(=O)NC2CCN(C/C=C/c3ccccc3)CC2)c(C)c(C)c1N [Compound 86, 2-(4-Amino-2,3,5-trimethylphenoxy)-N-[1-(3-phenyl-2-(E)-propenyl)-4-piperidinyl]acetamide]",,127
"CCN(C(=O)C(C)Oc1cc(C)c(N)c(C)c1C)C1CCN(CC2(c3ccccc3)CC2)CC1 (stereo not shown) [Compound 87, 2-(4-Amino-2,3,5-trimethylphenoxy)-N-ethyl-N-[1-(1-phenyl-1-cyclopropane)methyl-4-piperidinyl]propamide]",81,
"CCN(C(=O)CNc1c(C)c(C)c(N)c(C)c1C)C1CCN(CC2(c3ccccc3)CC2)CC1 [Compound 88, 2-(4-Amino-2,3,5,6-tetramethylanilino)-N-ethyl-N-[1-(1-phenyl-1-cyclopropane)methyl-4-piperidinyl]acetamide]",81,
"Cc1cc(OCC(=O)N(C)C2CCN(CC(=O)Nc3cc(Cl)c(N)cc3Cl)CC2)c(C)c(C)c1N [Compound 89, 2-(4-Amino-2,3,5-trimethylphenoxy)-N-[1-(2-(4-amino-2,5-dichloro)anilino-2-oxyethyl)-4-piperidinyl]-N-methylacetamide]",126,
"Cc1cc(OC(C)C(=O)N(C)C2CCN(CC3(c4ccccc4)CC3)CC2)c(C)c(C)c1N (stereo not shown) [Compound 90, 2-(4-Amino-2,3,5-trimethylphenoxy)-N-methyl-N-[1-(1-phenyl-1-cyclopropane)methyl-4-piperidinyl]propamide]",149,
"Cc1c(C)c(OCC(=O)NC2CCN(CC(=O)Nc3ccccc3)CC2)c(Cl)c(C)c1N [Compound 91, 2-(4-Amino-2-chloro-3,5,6-trimethylphenoxy)-N-[1-(2-anilino-2-oxyethyl)-4-piperidinyl]acetamide]",203,
"Cc1c(C)c(OCC(=O)N(C)C2CCN(CC(=O)Nc3cc(Cl)c(N)cc3Cl)CC2)c(Cl)c(C)c1N [Compound 92, 2-(4-Amino-2-chloro-3,5,6-trimethylphenoxy)-N-[1-(2-(4-amino-2,5-dichloro)anilino-2-oxyethyl)-4-piperidinyl]-N-methylacetamide]",66,
"CCN(C(=O)COc1c(C)c(C)c(N)c(C)c1Cl)C1CCN(CC(=O)Nc2cc(C)c(O)cc2C)CC1 [Compound 93, 2-(4-Amino-2-chloro-3,5,6-trimethylphenoxy)-N-[1-(2-(2,5-dimethyl-4-hydroxy)anilino-2-oxyethyl)-4-piperidinyl]-N-ethylacetamide]",171,
"Cc1cc(OCC(=O)NC2CCN(CC3(c4ccccc4)CC3)CC2)c(C)c(C)c1N [Compound 96, 2-(4-Amino-2,3,5-trimethylphenoxy)-N-[1-(1-phenyl-1-cyclopropane)methyl-4-piperidinyl]acetamide]",91,
"Cc1cc(OCC(=O)NC2CCN(CCc3ccccc3)CC2)c(C)c(C)c1N [Compound 97, 2-(4-Amino-2,3,5-trimethylphenoxy)-N-(1-(2-phenethyl)-4-piperidinyl)acetamide]",119,
"Cc1cc(OC(C)(C)C(=O)NC2CCN(CC(=O)Nc3c(C)cccc3C)CC2)c(C)c(C)c1N [Compound 98, 2-(4-Amino-2,3-5-trimethylphenoxy)-2-methyl-N-[1-(2-(2,6-dimethylanilino)-2-oxyethyl)-4-piperidinyl]propamide]",120,
"Cc1cc(OC(C)(C)C(=O)NC2CCN(CC(=O)Nc3ccccc3C(C)(C)C)CC2)c(C)c(C)c1N [Compound 100, 2-(4-Amino-2,3,5-trimethylphenoxy)-2-methyl-N-[1-(2-(2-tert-butylanilino)-2-oxyethyl)-4-piperidinyl]propamide]",138,
"Cc1cc(OC(C)C(=O)NC2CCN(CC3(c4ccccc4)CC3)CC2)c(C)c(C)c1N (stereo not shown) [Compound 101, 2-(4-Amino-2,3,5-trimethylphenoxy)-N-[1-(1-phenyl-1-cyclopropane)methyl-4-piperidinyl]propamide]",138,
"Cc1cc(OC(C)C(=O)NC2CCN(CC(=O)NC3(c4ccccc4)CC3)CC2)c(C)c(C)c1N (stereo not shown) [Compound 102, 2-(4-Amino-2,3,5-trimethylphenoxy)-N-[1-(2-(1-phenylcyclopropyl)amino-2-oxyethyl)-4-piperidinyl]propamide]",89,
"Cc1cc(OC(C)C(=O)N(C)C2CCN(CC(O)COc3ccccc3)CC2)c(C)c(C)c1N (stereo not shown) [Compound 103, 2-(4-Amino-2,3,5-trimethylphenoxy)-N-methyl-N-[1-(2-hydroxy-3-phenoxy)propyl-4-piperidinyl]propamide]",180,
"Cc1cc(NC(=O)CN2CCC(N(C)C(=O)C(C)(C)Oc3cc(C)c(N)c(C)c3C)CC2)c(C)cc1O [Compound 107, 2-(4-Amino-2,3,5-trimethylphenoxy)-2-methyl-N-[1-(2-(2,5-dimethyl-4-hydroxy)anilino-2-oxyethyl]-4-piperidinyl]-N-methylpropamide]",227,
"Cc1c(C)c(NCC(=O)N(C)C2CCN(Cc3ccccc3)CC2)c(C)c(C)c1N [Compound 110, 2-(4-Amino-2,3,5,6-tetramethylanilino)-N-(1-benzyl-4-piperidinyl]-N-methylacetamide]",,61
"Cc1c(C)c(NCC(=O)N(C)C2CCN(Cc3ccncc3)CC2)c(C)c(C)c1N [Compound 114, 2-(4-Amino-2,3,5,6-tetramethylanilino)-N-methyl-N-[1-(4-pyridylmethyl)-4-piperidinyl]acetamide]",,50
Cc1c(C)c(NCC(=O)N(C)C2CCN(Cc3ccc(C(N)=O)cc3)CC2)c(C)c(C)c1N [Compound 116],59,
